From paper PMC8212937 (Alcoholism, clinical and experimental research, 2009) come the findings set out here.

One test addresses T1, ALDH-1 (Homo sapiens, UniProt P00352).
T1 sequence (P00352 2-501): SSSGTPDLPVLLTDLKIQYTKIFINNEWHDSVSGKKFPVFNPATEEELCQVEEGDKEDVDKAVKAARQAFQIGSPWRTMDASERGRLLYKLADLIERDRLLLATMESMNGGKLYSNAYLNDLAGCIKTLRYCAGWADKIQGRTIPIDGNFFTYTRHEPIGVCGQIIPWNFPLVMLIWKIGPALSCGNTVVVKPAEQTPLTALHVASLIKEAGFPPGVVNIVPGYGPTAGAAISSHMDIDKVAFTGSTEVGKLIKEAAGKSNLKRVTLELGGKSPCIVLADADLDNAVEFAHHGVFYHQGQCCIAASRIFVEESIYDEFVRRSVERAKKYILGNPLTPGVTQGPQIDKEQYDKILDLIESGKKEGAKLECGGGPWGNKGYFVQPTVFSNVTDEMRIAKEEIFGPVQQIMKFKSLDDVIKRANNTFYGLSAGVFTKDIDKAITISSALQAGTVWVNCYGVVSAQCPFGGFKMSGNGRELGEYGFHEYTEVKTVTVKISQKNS
The test can be described thus: fluorimetric dehydrogenase activity assay. In kind it is biochemical.

For test [1], the target named is T2, aldehyde dehydrogenase 2 (ALDH-2) (Homo sapiens, UniProt P05091).
T2 sequence (P05091 18-517): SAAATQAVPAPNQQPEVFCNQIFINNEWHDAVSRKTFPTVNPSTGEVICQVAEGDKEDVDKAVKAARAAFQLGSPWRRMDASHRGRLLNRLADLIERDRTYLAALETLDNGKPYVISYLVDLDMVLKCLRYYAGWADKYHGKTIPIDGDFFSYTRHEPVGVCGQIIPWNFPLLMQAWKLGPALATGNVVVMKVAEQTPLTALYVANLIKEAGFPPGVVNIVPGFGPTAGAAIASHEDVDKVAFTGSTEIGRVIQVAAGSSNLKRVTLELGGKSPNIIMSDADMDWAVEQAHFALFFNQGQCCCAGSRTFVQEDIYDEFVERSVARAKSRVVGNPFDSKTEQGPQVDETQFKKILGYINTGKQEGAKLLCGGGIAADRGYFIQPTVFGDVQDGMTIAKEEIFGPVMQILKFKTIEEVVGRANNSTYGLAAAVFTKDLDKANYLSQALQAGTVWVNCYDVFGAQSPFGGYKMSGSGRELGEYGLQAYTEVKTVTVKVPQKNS
The test can be described thus: fluorimetric dehydrogenase activity assay. In kind it is biochemical.

For orientation: pIC50 means −log10 of the IC50, conventionally taken in molar units. The low end stands for a large IC50, the high end for a small IC50.

Molecules are shown by their SMILES. pIC50: −log10 of the molar value.

Consider `CS(=O)(=O)Nc1ccc(-c2coc3cc(OCc4cccc(C(=O)O)c4)ccc3c2=O)cc1` [CVT-10216, 3-((3-(4-(methylsulfonamido)phenyl)-4-oxo-4H-chromen-7-yloxy)methyl)benzoic acid], for which the pIC50 against ALDH-1 is 5.89; in test [1], approximately 7.54.
